In patent publication USRE50049E1, “Compositions and methods for treating psoriasis” (SYMBIONYX PHARMACEUTICALS INC, priority 2015, dated 2024):
Entries after “also recorded” stand apart in the source; their conditions may differ. Structures can show the parent of a compound that is named as a salt. Where two headings read alike, the source gives them in different places.

Tests used:
[1] = system: TNF α-treated human dermal fibroblasts (HDF); assay: PCR gene expression in TNF α-treated human dermal fibroblasts; format: cell-based; conditions: 24 hours, TNF-alpha 10 ng/ml
[2] = cited from earlier work
[3] = system: stratum granulosum (StGrm) coverage of mouse tail epidermis; assay: Murine tail model of psoriasis; format: in vivo; conditions: 2 weeks of application
Source text: The mouse tail test is a well-established animal model used for the development of FDA-approved anti-psoriasis drugs. Table 6 summarize the findings following 2 weeks of test material application on the tails, with the readout of improvement in stratum granulosum (StGrm) coverage +/− side effects.
The arrow in each photomicrograph points to the StGrm (stratum granulosum), which, as noted, is minimal in the control.

[4] = system: S. typhimurium (TA1535, TA1537); assay: AMES genotoxicity testing, overall conclusion (TA1535, TA1537); conditions: including at the highest concentration required for testing (5 mg/ml)
S. typhimurium TA1537 = conditions: % of mutant colonies spontaneously occurring in water control
[5] = system: psoriasiform keratinocytes (epidermal keratinocyte progenitors incubated with IL-17A/IL-22/TNFα); assay: DNA microarray gene expression in psoriasiform keratinocyte cultures; format: cell-based, human; conditions: IDMF added after 24 h cytokine treatment, further 24 h
Protocol: Psoriasiform keratinocyte cultures were established by incubating epidermal keratinocyte progenitors from stratum basae (Zen-Bio, RTP, NC) with IL-17A/IL-22/TNFα ([…]) for 24 h. These cytokines have been reported to be key triggers in psoriasis (Y Tokura, T Mori, R Hino, Psoriasis and other Th17-mediated skin diseases. J UOEH, 32(4):317-328, 2010; A B Van Belle, M de Heusch, M M Lemaire, E Hendrickx, G Wamier, K Dunussi-Joannopoulos, L A Fouser, J C Renauld, L Dumoutier, IL-22 is required for imiquimod-induced psoriasiform skin inflammation in mice, J Immunol, 188(1):462-469, 2012; A Hänsel, C Günther, J Ingwersen, J Starke, M Schmitz, M Bachmann, M Meurer, E P Rieber, K Schäkel, Human slan (6-sulfo LacNAc) dendritic cells are inflammatory dermal dendritic cells in psoriasis and drive strong TH17/TH1 T-cell responses, J Allergy Clin Immunol, 127(3):787-794, 2011; Kim J, Krueger J G. The Immunopathogenesis of Psoriasis, Dermatol Clin, 33:13-23, 2015). […]
After 24 h of cytokine treatment, the IDMF test materials were added to cells and further incubation with IL-17A/IL-22/TNFα was pursued for another 24 h. At the end of the experiment total RNA was extracted from keratinocytes and quantified using DNA microarrays. […]

3T3 = 3T3 Neutral Red Uptake Phototoxicity Assay; format: cell-based; conditions: even at the maximum concentration required for testing (100 μg/ml)
Source text: The 3T3 Neutral Red Uptake Phototoxicity Assay was based on the OECD Guideline for Testing of Chemicals: […], with chlorpromazine and tazarotene as positive controls.

[6] = system: skin of healthy adult volunteers; assay: Human repeat insult patch test (HRIPT); conditions: IDMF 2% and 5% in butylene glycol/glycerin base
S. typhimurium TA1535 = conditions: % of mutant colonies spontaneously occurring in water control
[7] = Lammintausta et al., Contact Dermatitis 2010; cited from earlier work
[8] = primary metabolite after oral administration of dimethyl fumarate; cited from earlier work
[9] = mouse tail, IDMF 2%, Tazorac 0.1% tazarotene

COC(=O)/C=C/C(=O)OC [DMF, Dimethyl fumarate, reference compound]
NFKB expression ([1]; DMF 5 μg/ml): decreased | protein binding [2]: does not display protein binding

COC(=O)/C=C/C(=O)OC1COC2C(OC(=O)/C=C/C(=O)OC)COC12 (centres unmarked) [IDMF, isosorbide di-(methylfumarate)]
Tail observations: epidermal thickness ([3]; mouse tail, IDMF 2% in butylene glycol/glycerin, Tazorac 0.1% tazarotene, control 3-4 layers): thickness (4-5 layers), | Tail observations: granular layer (StGrm) [3, 9]: significant extension of StGrm coverage; also recorded: extended granular layer | Tail observations: inflammatory (leukocyte) infiltrate [3, 9]: no inflammation; also recorded: no inflammatory infiltrate, | Tail observations: stratum corneum (StCr) [3, 9]: normal basketwave StCr, | StGrm expansion ([3]; mouse tail, control (no treatment) = 100, IDMF 2% in butylene glycol/glycerin, Tazorac 0.1% tazarotene, p < 0.0001): 134 (p < 0.0001) | genotoxicity (AMES) [4]: not genotoxic | COX-2 expression ([1]; IDMF 1 μg/ml): −2.4 fold | IL8 expression ([1]; IDMF 1 μg/ml): did not increase | NFKB expression ([1]; IDMF 1 μg/ml): decreased | % CTR (TA1537) (S. typhimurium TA1537; 8 μg/ml): 83 % CTR | % CTR (TA1537) (S. typhimurium TA1537; 40 μg/ml): 117 % CTR | % CTR (TA1537) (S. typhimurium TA1537; 200 μg/ml): 91 % CTR | % CTR (TA1537) (S. typhimurium TA1537; 1 mg/ml): 30 % CTR | % CTR (TA1537) (S. typhimurium TA1537; 5 mg/ml): 13 % CTR | TNFα/IFNγ/IL-17 responses (DNA microarray) [5]: significant inhibition | antioxidant pathways, especially those related to glutathione (DNA microarray) [5]: upregulated | phototoxicity (3T3): not phototoxic | conclusion of the HRIPT study [6]: non-sensitizing and non-irritating | participants with score zero ([6]; 100 healthy adult volunteers): 100% | skin sensitization/irritation score (scale 0-5) ([6]; 100 healthy adult volunteers): 0 | flushing ([6]; topical patch): no flushing was observed | % CTR (TA1535) (S. typhimurium TA1535; 8 μg/ml): 96 % CTR | % CTR (TA1535) (S. typhimurium TA1535; 40 μg/ml): 89 % CTR | % CTR (TA1535) (S. typhimurium TA1535; 200 μg/ml): 68 % CTR | % CTR (TA1535) (S. typhimurium TA1535; 1 mg/ml): 64 % CTR | % CTR (TA1535) (S. typhimurium TA1535; 5 mg/ml): 18 % CTR

COC(=O)/C=C/C(=O)O [MMF, monomethyl fumarate]
skin sensitization [7]: known skin sensitizers | half-life [8]: 36 h | protein binding (bound) [2]: approximately 50%

CCOC(=O)c1ccc(C#Cc2ccc3c(c2)C(C)(C)CCS3)nc1 [tazarotene, reference compound]
adverse effects in mouse tail test ([3]; positive control): substantial hyperkeratosis, spongiosis and wide-spread inflammation
